Data from publication PMC10492836, “Chemical-induced phase transition and global conformational reorganization of chromatin” (Nature Communications, 2023).

Molecular target: T1, histone H1
T1 construct: Recombinant histone H1 immobilized on CM5 chip
Assay: SPR (Biacore 8K, […] Langmuir fit); supported by in vitro co-condensation with H1-CFP
Format: binding

SMILES: COc1cccc2c1C(=O)c1c(O)c3c(c(O)c1C2=O)C[C@@](O)(C(=O)CO)C[C@@H]3O[C@H]1C[C@H](N)[C@H](O)[C@H](C)O1 [adriamycin]
- Kd: 1970 nM
